Results from US20060276445A1, “Bicyclic 6-alkylidene-penems as class-D beta-lactamases inhibitors” (priority 2005, published 2006).

Test system: E. coli GC 2883 (OXA-10 + PSE-2)
Assay: Antimicrobial susceptibility testing, microbroth dilution (NCCLS), piperacillin combined with β-lactamase inhibitor
Assay type: cell-based
Conditions: MIC of piperacillin combined with a constant amount (4 ug/ml) of the inhibitor; class-D producing E. coli GC 2883 (OXA-10 + PSE-2); 35° C. for 18 hours
Protocol: Antimicrobial susceptibility testing. The in vitro activities of the antibiotic, piperacillin in this case, against resistant pathogens expressing class-D enzymes were determined by the microbroth dilution method as recommended by the National Committee for Clinical Laboratory Standards (NCCLS). (NCCLS. 2000. Methods for Dilution Antimicrobial Susceptibility Tests for Bacteria That Grow Aerobically; Approved Standards: M7-A5, vol. 19. National Committee for Clinical Laboratory Standards, Villanova, Pa.). Mueller-Hinton II broth (MHBII)(BBL Cockeysville, Md.), was used for the testing procedure. Microtiter plates containing 50 μL per well of two-fold serial dilutions of piperacillin combined with a constant amount (4 ug/ml) of a B-lactamase inhibitor were inoculated with 50 μL of inoculum to yield the appropriate density (10^5 CFU/mL) in 100 μL final volume. The plates were incubated for 18-22 hours at 35° C. in ambient air. […] The MIC50 data obtained by the above said procedure are enlisted in Table 1. […] Both OXA-10 and PSE-2 are class D β-lactamases. (Bush, K. Jacoby, G. A., Medeiros, A. A. Antimicrob. Agents Chemother., 1995, 39, 1211.)
For CN1CCn2cc(/C=C3/C(=O)N4C(C(=O)[O-])=CS[C@H]34)nc2C1.[Na+] [Example 2, (5R),(6Z)-6-(7-Methyl-5,6,7,8-tetrahydroimidazo[1,2-a]pyrazin-2-ylmethylene)-7-oxo-4-thia-1-aza-bicyclo[3.2.0]hept-2-ene-2-carboxylic acid, sodium salt], the “Minimal Inhibitory Concentration (MIC50) Data” value was 4 µg/mL. In the case of O=C([O-])C1=CS[C@@H]2/C(=C\c3cn4c(n3)CNCC4)C(=O)N12.[Na+] [Example 3, (5R),(6Z)-7-Oxo-6-(5,6,7,8-tetrahydroimidazo[1,2-a]pyrazin-2-ylmethylene)-4-thia-1-azabicyclo[3.2.0]hept-2-ene-2-carboxylic acid, sodium salt], the “Minimal Inhibitory Concentration (MIC50) Data” value is reported as 2 µg/mL. In the case of COc1ccc(CN2CCc3sc(/C=C4/C(=O)N5C(C(=O)O)=CS[C@H]45)cc3C2)cc1 [Example 4], the “Minimal Inhibitory Concentration (MIC50) Data” value is reported as 4 µg/mL. For O=C([O-])C1=CS[C@@H]2/C(=C\c3cn4c(n3)CSCC4)C(=O)N12.[Na+] [Example 5, (5R),(6Z)-6-(5,6-dihydro-8H-imidazo[2,1-c][1.4]thiazin-2-ylmethylene)-7-oxo-4-thia-1-azabicyclo[3.2.0]hept-2-ene-2-carboxylic acid, sodium salt], the “Minimal Inhibitory Concentration (MIC50) Data” value was 2 µg/mL. With O=C([O-])C1=CS[C@@H]2/C(=C\c3cn4c(n3)CCC4)C(=O)N12.[Na+] [Example 6, (5R),(6Z)-6-(6,7-Dihydro-5H-pyrrolo[1,2-a]imidazol-2-ylmethylene)-7-oxo-4-thia-1-aza-bicyclo[3.2.0]hept-2-ene-2-carboxylic acid, sodium salt] the “Minimal Inhibitory Concentration (MIC50) Data” value was 2 µg/mL. With O=C([O-])C1=CS[C@@H]2/C(=C\c3cn4c(n3)COCC4)C(=O)N12.[Na+] [Example 7, (5R),(6Z)-6-(5,6-Dihydro-8H-imidazo[2,1-c][1,4]oxazin-2-ylmethylene)-7-oxo-4-thia-1-azabicyclo[3.2.0]hept-2-ene-2-carboxylic acid, sodium salt] the “Minimal Inhibitory Concentration (MIC50) Data” value was 4 µg/mL. With O=C([O-])C1=CS[C@@H]2/C(=C\c3cc4n(n3)CCC4)C(=O)N12.[Na+] [Example 8, (5R),(6Z)-6-(5,6-Dihydro-4H-pyrrolo[1,2-b]pyrazol-2-ylmethylene)-7-oxo-4-thia-1-azabicyclo[3.2.0]hept-2-ene-2-carboxylic acid, sodium salt] the “Minimal Inhibitory Concentration (MIC50) Data” value was 4 µg/mL. For CN1Cc2nc(/C=C3/C(=O)N4C(C(=O)[O-])=CS[C@H]34)cn2CC1=O.[Na+] [Example 10, (5R),(6Z)-6-(7-Methyl-6-oxo-5,6,7,8-tetrahydro-imidazo[1,2-a]pyrazin-2-ylmethylene)-7-oxo-4-thia-1-aza-bicyclo[3.2.0]hept-2-ene-2-carboxylic acid sodium salt], the “Minimal Inhibitory Concentration (MIC50) Data” value was 8 µg/mL. With O=C([O-])C1=CS[C@@H]2/C(=C\c3cn4c(n3)CN(Cc3ccccc3)CC4)C(=O)N12.[Na+] [Example 20, (5R),(6Z)-6-(7-Benzyl-5,6,7,8-tetrahydroimidazo[1,2-a]pyrazin-2-ylmethylene)-7-oxo-4-thia-1-azabicyclo[3.2.0]hept-2-ene-2-carboxylic acid, sodium salt] the “Minimal Inhibitory Concentration (MIC50) Data” value was 16 µg/mL. With O=C(O)C1=CS[C@@H]2/C(=C\c3cc4c(s3)CCN(Cc3cccnc3)C4)C(=O)N12 [Example 21] the “Minimal Inhibitory Concentration (MIC50) Data” value was 8 µg/mL. With O=C(O)C1=CS[C@@H]2/C(=C\c3cc4c(s3)CCN(C(=O)c3cccnc3)C4)C(=O)N12 [Example 22] the “Minimal Inhibitory Concentration (MIC50) Data” value was 16 µg/mL. With O=C(O)C1=CS[C@@H]2/C(=C\c3cc4c(s3)CCN(C(=O)Cc3ccccc3)C4)C(=O)N12 [Example 23] the “Minimal Inhibitory Concentration (MIC50) Data” value was 8 µg/mL. For O=C([O-])C1=CS[C@@H]2/C(=C\c3cc4n(n3)CCS(=O)(=O)C4)C(=O)N12.[Na+] [Example 24, (5R),(6Z)-6-(5,5-Dioxo-4,5,6,7-tetrahydro-5λ^6-pyrazolo[5,1-c][1,4]thiazin-2-ylmethylene)-7-oxo-4-thia-1-azabicyclo[3.2.0]hept-2-ene-2-carboxylic acid, sodium salt], the “Minimal Inhibitory Concentration (MIC50) Data” value was 4 µg/mL. With O=C([O-])C1=CS[C@@H]2/C(=C\c3cc4n(n3)CCNC4)C(=O)N12.[Na+] [Example 25, (5R),(6Z)-7-Oxo-6-(4,5,6,7-tetrahydropyrazolo[1,5-a]pyrazin-2-ylmethylene)-4-thia-1-aza-bicyclo[3.2.0]hept-2-ene-2-carboxylic acid, sodium salt] the “Minimal Inhibitory Concentration (MIC50) Data” value was 4 µg/mL. With CC1(C)Cc2cc(/C=C3/C(=O)N4C(C(=O)[O-])=CS[C@H]34)nn2C1.[Na+] [Example 26, (5R)(6Z)-6-(5,5-Dimethyl-4H-1.6a-diazapentalen-2-ylmethylene)-7-oxo-4-thia-1-azabicyclo[3.2.0]hept-2-ene-2-carboxylic acid, sodium salt] the “Minimal Inhibitory Concentration (MIC50) Data” value was 4 µg/mL. In the case of O=C([O-])C1=CS[C@@H]2/C(=C\c3cc4c(o3)CCC4)C(=O)N12.[Na+] [Example 27, (5R),(6Z)-6-(5,6-Dihydro-4H-cyclopenta[b]furan-2-ylmethylene)-7-oxo-4-thia-1-azabicyclo[3.2.0]hept-2-ene-2-carboxylic acid, sodium salt], the “Minimal Inhibitory Concentration (MIC50) Data” value is reported as 2 µg/mL. In the case of CC1(C)Cn2cc(/C=C3/C(=O)N4C(C(=O)[O-])=CS[C@H]34)nc2CN1.[Na+] [Example 29, (5R),(6Z)-6-(6,6-Dimethyl-5,6,7,8-tetrahydroimidazo[1,2-a]pyrizin-2-ylmethylene)-7-oxo-4-thia-1-azabicyclo[3.2.0]hept-2-ene-2-carboxylic acid, sodium salt], the “Minimal Inhibitory Concentration (MIC50) Data” value is reported as 4 µg/mL. In the case of O=C(O)C1=CS[C@@H]2/C(=C\c3cnc4n3CCSC4)C(=O)N12 [Example 30, (5R),(6Z)-6-(5,6-Dihydro-8-H-imidazo[2,1-c][1,4]thiazin-3-ylmethylene)-7-oxo-4-thia-1-azabicyclo[3.2.0]hept-2-ene-2-carboxylic acid], the “Minimal Inhibitory Concentration (MIC50) Data” value is reported as 4 µg/mL. For CC(=O)N1CCc2sc(/C=C3/C(=O)N4C(C(=O)O)=CS[C@H]34)cc2C1 [Example 33, (5R,6Z)-6-[(5-acetyl-4,5,6,7-tetrahydrothieno[3,2-c]pyridin-2-yl)methylene]-oxo-4-thia-1-azabicyclo[3.2.0.]hept-2-ene-2-carboxylic acid], the “Minimal Inhibitory Concentration (MIC50) Data” value was 16 µg/mL. With O=C([O-])C1=CS[C@@H]2/C(=C\c3cc4n(n3)CCCO4)C(=O)N12.[Na+] [Example 35, (5R)(6Z)-6-(6,7-5H-Dihydropyrazolo[5,1-b]oxazin-2-Ylmethylene)-7-oxo-4-thia-1-azabicyclo[3.2.1]hept-2-ene-2-carboxylic acid, sodium salt] the “Minimal Inhibitory Concentration (MIC50) Data” value was 2 µg/mL. With O=C([O-])CCC(=O)N1CCn2nc(/C=C3/C(=O)N4C(C(=O)[O-])=CS[C@H]34)cc2C1.[Na+].[Na+] [Example 36, (5R),(6Z)-6-[5-(3-carboxypropionyl)-4,5,6,7-tetrahydropyrazolo[1,5-a]pyrazin-2-ylmethylene]-7-oxo-4-thia-1-azabicyclo[3.2.0]hept-2-ene-carboxylic acid, disodium salt] the “Minimal Inhibitory Concentration (MIC50) Data” value was 4 µg/mL. With COCC(=O)N1CCn2nc(/C=C3/C(=O)N4C(C(=O)[O-])=CS[C@H]34)cc2C1.[Na+] [Example 37, (5R),(6Z)-6-[5-(2-methoxyacetyl)-4,5,6,7-tetrahydropyrazolo[1,5-a]pyrazin-2-ylmethylene]-7-oxo-4-thia-1-azabicyclo[3.2.0]hept-2-ene-carboxylic acid, sodium salt] the “Minimal Inhibitory Concentration (MIC50) Data” value was 2 µg/mL. With O=C([O-])C1=CS[C@@H]2/C(=C\c3cc4n(n3)CCN(C3=NCCS3)C4)C(=O)N12.[Na+] [Example 38, (5R),(6Z)-6-[5-(4,5-Dihydrothiazol-2-yl)-4,5,6,7-tetrahydropyrazolo[1,5-a]pyrazin-2-ylmethylene]-7-oxo-4-thia-1-azabicyclo[3.2.0]hept-2-ene-2-carboxylic acid sodium salt] the “Minimal Inhibitory Concentration (MIC50) Data” value was 2 µg/mL.

Test system: E. coli GC 2883 (OXA-10 + PSE-2)
Assay: as above
Assay type: cell-based
Conditions: Escherichia coli; piperacillin as control, without inhibitor
Work on CCN1CCN(C(=O)N[C@@H](C(=O)N[C@@H]2C(=O)N3[C@@H]2SC(C)(C)[C@@H]3C(=O)O)c2ccccc2)C(=O)C1=O [piperacillin] yielded an MIC50 of over 64 µg/mL.

Test system: not given
Assay: not given
Conditions: not given
With O=C(O)C1=CS[C@@H]2/C(=C\c3cc4c(s3)CCN(Cc3ccccc3)C4)C(=O)N12 [Example 1, (5R,6Z)-6-[(5-benzyl-4,5,6,7-tetrahydrothieno[3,2-c]pyridin-2-yl)methylene]-7oxo-4-thia-1-azabicyclo[3.2.0]hept-2-ene-2-carboxylic acid] the melting point was 198 °C. Molecule CN1CCc2sc(C=C3C(=O)N4C(C(=O)O)=CSC34)cc2C1 (stereo not drawn) [Example 17, 6-(5-Methyl-4,5,6,7-tetrahydro-thieno[3,2-c]pyridin-2-ylmethylene)-7-oxo-4-thia-1-aza-bicyclo[3.2.0]hept-2-ene-2-carboxylic acid] has a melting point of over 250 °C. CCOC(=O)N1CCc2sc(C=C3C(=O)N4C(C(=O)O)=CSC34)cc2C1 (stereo not drawn) [Example 18, 2-(2-Carboxy-7-oxo-4-thia-1-aza-bicyclo[3.2.0]hept-2-en-6-ylidenemethyl)-6,7-dihydro-4H-thieno[3,2-c]pyridine-5-carboxylic acid ethyl ester] gave a melting point of over 250 °C.
